Experimental data reported in patent publication US10807970B2 (priority 2016, dated 2020).
Where two headings read alike, the source gives them in different places.

Target: human σ1 receptor (Homo sapiens, UniProt Q99720)
Assay: Human σ1 receptor radioligand assay ([3H](+)-pentazocine, transfected HEK-293 membranes)
Format: binding
Set-up: μ and σ1 dual binding: key to the marks not given beside the values
Conditions: one class symbol for both Ki-σ1 (human σ1 receptor, A1) and Ki-μ (human μ-opioid receptor, A2)
Method: Human σ1 Receptor Radioligand Assay
To investigate binding properties of test compounds to human σ1 receptor, transfected HEK-293 membranes and [^3H](+)-pentazocine (Perkin Elmer, NET-1056), as the radioligand, were used. The assay was carried out with 7 μg of membrane suspension, 5 nM of [^3H](+)-pentazocine in either absence or presence of either buffer or 10 μM Haloperidol for total and non-specific binding, respectively. Binding buffer contained Tris-HCl 50 mM at pH 8. Plates were incubated at 37° C. for 120 minutes. After the incubation period, the reaction mix was then transferred to MultiScreen HTS, FC plates (Millipore), filtered and plates were washed 3 times with ice-cold 10 mM Tris-HCL (pH7.4). Filters were dried and counted at approximately 40% efficiency in a MicroBeta scintillation counter (Perkin-Elmer) using EcoScint liquid scintillation cocktail

[1] = read-out: μ and σ1 dual binding

human σ1 receptor, sequence (Q99720 whole entry): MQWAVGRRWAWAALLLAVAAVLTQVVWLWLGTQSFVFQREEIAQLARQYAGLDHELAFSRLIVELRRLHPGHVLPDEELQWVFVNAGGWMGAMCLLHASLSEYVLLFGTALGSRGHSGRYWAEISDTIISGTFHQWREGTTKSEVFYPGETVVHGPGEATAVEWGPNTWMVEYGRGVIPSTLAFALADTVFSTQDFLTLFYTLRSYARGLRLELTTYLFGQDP

Row | SMILES | μ and σ1 dual binding | Ki (μ and σ1 dual binding) | other results
1 | CC(C)CCN1CCN([C@@]2(C(=O)c3ccccn3)CCO[C@@H](C)C2)CC1 [Example 168] | ++ | – | –
2 | N#Cc1cccc(CN2CCN(C3(c4ccccc4)CCOC4(CCCC4)C3)CC2)c1 (stereo not shown) [Example 121, 3-((4-(9-phenyl-6-oxaspiro[4.5]decan-9-yl)piperazin-1-yl)methyl)benzonitrile] | ++ | – | –
3 | CC(C)(O)COCCN1CCN(C2(C(=O)c3ccccn3)CCOC(C)(C)C2)CC1 (stereo not shown) [Example 70, (4-(4-(2-(2-hydroxy-2-methylpropoxy)ethyl)piperazin-1-yl)-2,2-dimethyltetrahydro-2H-pyran-4-yl)(pyridin-2-yl)methanone] | ++ | – | –
4 | CC(C)C1(N2CCN(CCc3cccc(F)c3)CC2)CCOC(C)(C)C1 (stereo not shown) [Example 91, 1-(3-fluorophenethyl)-4-(4-isopropyl-2,2-dimethyltetrahydro-2H-pyran-4-yl)piperazine] | – | < 500 nM | –
5 | CC1(C)CC(C(=O)c2ccccn2)(N2CCN(CCc3ccncc3F)CC2)CCO1 (stereo not shown) [Example 85, (4-(4-(2-(3-fluoropyridin-4-yl)ethyl)piperazin-1-yl)-2,2-dimethyltetrahydro-2H-pyran-4-yl)(pyridin-2-yl)methanone] | – | < 500 nM | –
6 | CCC1(N2CCN(CCc3ccccc3)CC2)CCOC(C)(C)C1 (stereo not shown) [Example 52, 1-(4-ethyl-2,2-dimethyltetrahydro-2H-pyran-4-yl)-4-phenethylpiperazine] | – | – | Ki [1]: < 500 nM
7 | C[C@H]1C[C@](C(=O)c2ccccn2)(N2CCN(Cc3ccccc3)CC2)CCO1 [Example 27] | – | – | Ki [1]: < 500 nM
8 | CC(C)OCCN1CCN(C2(C(=O)c3cccc(C(F)(F)F)n3)CCOC(C)(C)C2)CC1 (stereo not shown) [Example 16, (4-(4-(2-isopropoxyethyl)piperazin-1-yl)-2,2-dimethyltetrahydro-2H-pyran-4-yl)(6-(trifluoromethyl)pyridin-2-yl)methanone] | – | < 500 nM | –
9 | CC1(C)CC(C(=O)c2ccccn2)(N2CCN(Cc3cccc(F)c3)CC2)CCO1 (stereo not shown) [Example 61, (4-(4-(3-fluorobenzyl)piperazin-1-yl)-2,2-dimethyltetrahydro-2H-pyran-4-yl)(pyridin-2-yl)methanone] | – | < 500 nM | –
10 | CC(C)CN1CCN(C2(c3ccccc3)CCOC3(CCCC3)C2)CC1 (stereo not shown) [Example 33, 1-isobutyl-4-(9-phenyl-6-oxaspiro[4.5]decan-9-yl)piperazine] | – | < 500 nM | –
11 | c1ccc(CN2CCN(C3(c4ccccc4)CCOC4(CCCC4)C3)CC2)cc1 (stereo not shown) [Example 32, 1-benzyl-4-(9-phenyl-6-oxaspiro[4.5]decan-9-yl)piperazine] | – | < 100 nM | –
12 | CC(C)CCN1CCC([C@@]2(C(=O)c3ccccn3)CCO[C@@H](C)C2)CC1 [Example 171] | ++ | – | –
13 | CC(C)C1(N2CCN(CCc3cccc(F)c3F)CC2)CCOC(C)(C)C1 (stereo not shown) [Example 101, 1-(2,3-difluorophenethyl)-4-(4-isopropyl-2,2-dimethyltetrahydro-2H-pyran-4-yl)piperazine] | ++ | – | –
14 | CC1(C)CC(C(=O)c2ccccn2)(N2CCN(Cc3cccnc3)CC2)CCO1 (stereo not shown) [Example 58, (2,2-dimethyl-4-(4-(pyridin-3-ylmethyl)piperazin-1-yl)tetrahydro-2H-pyran-4-yl)(pyridin-2-yl)methanone] | – | – | Ki [1]: > 500 nM
15 | C[C@@H]1C[C@@](C(=O)c2ccccn2)(N2CCN(Cc3ccccc3)CC2)CCO1 [Example 25] | – | – | Ki [1]: > 500 nM
16 | CN(Cc1ccccc1)[C@H]1CCN(C2(C(=O)c3ccccn3)CCOC(C)(C)C2)C1 (stereo partly drawn) [Example 138, (4-((S)-3-(benzyl(methyl)amino)pyrrolidin-1-yl)-2,2-dimethyltetrahydro-2H-pyran-4-yl)(pyridin-2-yl)methanone] | – | > 500 nM | –
17 | CC(C)OCCN(C)C1CN(C2(C(=O)c3ccccn3)CCOC(C)(C)C2)C1 (stereo not shown) [Example 23, (4-(3-((2-isopropoxyethyl)(methyl)amino)azetidin-1-yl)-2,2-dimethyltetrahydro-2H-pyran-4-yl)(pyridin-2-yl)methanone] | – | – | Ki [1]: > 500 nM
18 | CC1(C)CC(C)(N2CCN(Cc3ccccc3)CC2)CCO1 (stereo not shown) [Example 36, 1-benzyl-4-(2,2,4-trimethyltetrahydro-2H-pyran-4-yl)piperazine] | ++ | – | –
19 | CC1(C)CC(C(=O)c2ccccn2)(C2CCN(Cc3ccccc3F)CC2)CCO1 (stereo not shown) [Example 110, (4-(1-(2-fluorobenzyl)piperidin-4-yl)-2,2-dimethyltetrahydro-2H-pyran-4-yl)(pyridin-2-yl)methanone] | ++ | – | –
20 | CC(C)OCCN(C)[C@H]1CCN([C@]2(C(=O)c3ccccn3)CCOC(C)(C)C2)C1 [Example 146, ((R)-4-((S)-3-((2-isopropoxyethyl)(methyl)amino)pyrrolidin-1-yl)-2,2-dimethyltetrahydro-2H-pyran-4-yl)(pyridin-2-yl)methanone] | ++ | – | –

Row | SMILES | μ and σ1 dual binding | Ki (μ and σ1 dual binding) | other results
21 | CC(C)C1(N2CCN(CCc3ccccc3)CC2)CCOC(C)(C)C1 (stereo not shown) [Example 42, 1-(4-isopropyl-2,2-dimethyltetrahydro-2H-pyran-4-yl)-4-phenethylpiperazine] | – | < 100 nM | –
22 | CC1(C)CC(C(=O)c2ccccn2)(N2CCN(Cc3ccccc3)CC2)CCO1 (stereo not shown) [Example 1, (4-(4-benzylpiperazin-1-yl)-2,2-dimethyltetrahydro-2H-pyran-4-yl)(pyridin-2-yl)methanone] | – | < 100 nM | –
23 | CC1(C)CC(C(=O)c2cccnc2)(N2CCN(Cc3ccccc3)CC2)CCO1 (stereo not shown) [Example 10, (4-(4-benzylpiperazin-1-yl)-2,2-dimethyltetrahydro-2H-pyran-4-yl)(pyridin-3-yl)methanone] | ++ | – | –
24 | CN(Cc1ccccc1)[C@H]1CCN([C@]2(C(=O)c3ccccn3)CCOC(C)(C)C2)C1 [Example 141, ((R)-4-((S)-3-(benzyl(methyl)amino)pyrrolidin-1-yl)-2,2-dimethyltetrahydro-2H-pyran-4-yl)(pyridin-2-yl)methanone] | ++ | – | –
25 | CCCC1(N2CCN(CCc3ccccc3)CC2)CCOC(C)(C)C1 (stereo not shown) [Example 41, 1-(2,2-dimethyl-4-propyltetrahydro-2H-pyran-4-yl)-4-phenethylpiperazine] | – | < 500 nM | –
26 | CC1(C)CC(C(O)c2ccccn2)(N2CCN(Cc3ccccc3)CC2)CCO1 (stereo not shown) [Example 129, (4-(4-benzylpiperazin-1-yl)-2,2-dimethyltetrahydro-2H-pyran-4-yl)(pyridin-2-yl)methanol] | ++ | – | –
27 | CC(C)OCCN1CCN(C2(C(=O)c3ccccn3)CC(C)(C)OC(C)(C)C2)CC1 [Example 72, (4-(4-(2-isopropoxyethyl)piperazin-1-yl)-2,2,6,6-tetramethyltetrahydro-2H-pyran-4-yl)(pyridin-2-yl)methanone] | ++ | – | –
28 | CC[C@]1(N2CCN(CCc3ccccc3)CC2)CCO[C@@H](C)C1 (stereo in doubt) [Example 46, 1-(4-ethyl-2-methyltetrahydro-2H-pyran-4-yl)-4-phenethylpiperazine] | ++ | – | –
29 | CC(C)OCCN(C)[C@@H]1CCN([C@@]2(C(=O)c3ccccn3)CCOC(C)(C)C2)C1 [Example 145, ((S)-4-((R)-3-((2-isopropoxyethyl)(methyl)amino)pyrrolidin-1-yl)-2,2-dimethyltetrahydro-2H-pyran-4-yl)(pyridin-2-yl)methanone] | – | – | Ki [1]: > 500 nM
30 | CCC1(N2CCN(CCc3ccccc3F)CC2)CCOC(C)(C)C1 (stereo not shown) [Example 94, 1-(4-ethyl-2,2-dimethyltetrahydro-2H-pyran-4-yl)-4-(2-fluorophenethyl)piperazine] | – | < 500 nM | –
31 | CCOCCN1CCC(C2(C(=O)c3ccccn3)CCOC(C)(C)C2)CC1 (stereo not shown) [Example 104] | ++ | – | –
32 | OC(c1ccccn1)C1(C2CCN(Cc3ccccc3)CC2)CCOCC1 (stereo not shown) [Example 130, (4-(1-benzylpiperidin-4-yl)tetrahydro-2H-pyran-4-yl)(pyridin-2-yl)methanol] | ++ | – | –
33 | c1ccc(C2(N3CCN(Cc4cccnc4)CC3)CCOC3(CCCC3)C2)cc1 (stereo not shown) [Example 119, 1-(9-phenyl-6-oxaspiro[4.5]decan-9-yl)-4-(pyridin-3-ylmethyl)piperazine] | ++ | – | –
34 | CC[C@]1(N2CCN(Cc3ccc(C#N)cc3)CC2)CCO[C@H](C)C1 [Example 251, 4-((4-((2R,4S)-4-ethyl-2-methyltetrahydro-2H-pyran-4-yl)piperazin-1-yl)methyl)benzonitrile] | – | – | Ki [1]: > 500 nM
35 | CCC1(N2CCN(Cc3ccccc3)CC2)CCOC(C)(C)C1 (stereo not shown) [Example 38, 1-benzyl-4-(4-ethyl-2,2-dimethyltetrahydro-2H-pyran-4-yl)piperazine] | ++ | – | –
36 | c1ccc(CN2CCN(C3(Cc4ccccc4)CCOC4(CCCC4)C3)CC2)cc1 (stereo not shown) [Example 34, 1-benzyl-4-(9-benzyl-6-oxaspiro[4.5]decan-9-yl)piperazine] | – | < 500 nM | –
37 | O=C(c1ccccn1)C1(N2CCN(Cc3ccc(F)c(F)c3)CC2)CCOCC1 [Example 197, (4-(4-(3,4-difluorobenzyl)piperazin-1-yl)tetrahydro-2H-pyran-4-yl)(pyridin-2-yl)methanone] | – | – | Ki [1]: > 500 nM
38 | CN(Cc1ccccc1)[C@@H]1CCN([C@]2(C(=O)c3ccccn3)CCOC(C)(C)C2)C1 [Example 142] | – | < 100 nM | –
39 | C[C@@H]1C[C@@](C(=O)c2ccccn2)(N2CCN(Cc3ccccc3)CC2)CCO1 [Example 28] | ++ | – | –
40 | CC1(C)CC(C(=O)c2ccccn2)(C2CCN(Cc3ccccc3)CC2)CCO1 (stereo not shown) [Example 22, (4-(1-benzylpiperidin-4-yl)-2,2-dimethyltetrahydro-2H-pyran-4-yl)(pyridin-2-yl)methanone] | – | < 500 nM | –
